Results on 2 compounds are retold here after ChEMBL document CHEMBL3244015, “Synthesis and biological evaluation of a tetrahydroisoquinoline derivative possessing selective beta2-adrenergic agonist activity” (J Med Chem, 1977).

Assay [1] addresses Beta-1 adrenergic receptor (Cavia porcellus) (UniProt B0FL73). The experiment in a line: Agonist activity at beta-1 adrenergic receptor in isolated guinea pig atrial preparation assessed as induction of chronotrophic response at 10^-9 to 10^-3 M. Particulars: Cardiac atrium.
In assay [2] the target is Beta-2 adrenergic receptor (Cavia porcellus) (UniProt Q8K4Z4). The experiment in a line: Agonist activity at beta-2 adrenergic receptor in isolated guinea pig trachea assessed as induction of relaxation of tracheal muscle at 10^-9 to 10^-3 M.
Sequence of Beta-2 adrenergic receptor (Cavia porcellus) (Q8K4Z4 whole entry, looked up): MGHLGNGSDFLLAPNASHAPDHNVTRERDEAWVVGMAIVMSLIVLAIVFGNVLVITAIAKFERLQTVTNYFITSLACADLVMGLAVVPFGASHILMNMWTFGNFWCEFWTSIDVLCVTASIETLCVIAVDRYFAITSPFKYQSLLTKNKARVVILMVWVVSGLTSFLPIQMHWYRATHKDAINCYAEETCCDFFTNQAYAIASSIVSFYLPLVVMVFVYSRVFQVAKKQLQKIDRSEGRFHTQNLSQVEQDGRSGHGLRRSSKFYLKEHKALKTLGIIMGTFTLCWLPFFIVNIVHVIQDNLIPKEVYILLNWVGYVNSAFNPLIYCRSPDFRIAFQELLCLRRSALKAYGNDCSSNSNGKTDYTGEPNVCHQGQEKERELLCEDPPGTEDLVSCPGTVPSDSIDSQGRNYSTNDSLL
Assay [3] has the same target. Kind of assay: Agonist activity at beta-2 adrenergic receptor in isolated guinea pig trachea assessed as induction of relaxation of tracheal muscle.

The source made the active and inactive calls. The rule behind the calls is not given here.

Sequence of Beta-1 adrenergic receptor (Cavia porcellus) (B0FL73 1-467): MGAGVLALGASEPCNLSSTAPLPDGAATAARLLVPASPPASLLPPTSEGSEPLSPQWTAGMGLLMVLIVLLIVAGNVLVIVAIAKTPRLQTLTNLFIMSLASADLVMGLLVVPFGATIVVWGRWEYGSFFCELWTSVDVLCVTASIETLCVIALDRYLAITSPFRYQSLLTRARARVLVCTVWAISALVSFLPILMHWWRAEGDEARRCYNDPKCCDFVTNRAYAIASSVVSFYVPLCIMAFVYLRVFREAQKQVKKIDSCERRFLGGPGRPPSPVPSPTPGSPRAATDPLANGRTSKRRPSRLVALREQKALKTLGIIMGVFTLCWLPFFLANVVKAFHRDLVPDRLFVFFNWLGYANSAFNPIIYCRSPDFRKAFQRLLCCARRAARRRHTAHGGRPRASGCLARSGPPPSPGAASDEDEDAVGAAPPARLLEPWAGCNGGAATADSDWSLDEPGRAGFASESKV

For the compound `COc1cc(CC(CN)c2ccc(O)c(O)c2)cc(OC)c1OC` (centres undefined), the outcome in assay [1] and in assay [2] was Active.
On to `COc1cc(CC2CNCc3cc(O)c(O)cc32)cc(OC)c1OC` (centres undefined), for which, in assay [1], the outcome was inactive. Moreover, the ED50 in assay [3] was 1 ×10⁻⁵ M.
